# Assay results taken from patent US20250170114A1, “METHODS OF TREATMENT USING T-TYPE CALCIUM CHANNEL MODULATORS” (Praxis Precision Medicines, Inc., priority 2022, published 2025).
# “Also recorded” adds a separate entry of the source.
# Assays:
# [1] = Plasma and brain tissue concentrations in rats after harmaline testing; type: in vivo, rat; details: collected immediately after harmaline testing
# Method: Plasma and brain tissue sample collection (at 90 min post dosing of study compound) was evaluated in […]. N=15 in each group. Plasma and brain tissue samples were collected immediately after harmaline testing. Plasma sample number: 5×15=75. Brain tissue sample number: 5×15=75.
# [2] = test system: rat spontaneous locomotor activity (sLMA); assay: Rat spontaneous locomotor activity (sLMA) assay; type: in vivo; details: rats, 0-30 min; compound of Formula (I) 1 mg/kg p.o., propranolol 1 or 3 mg/kg i.p., alone or in combination
# Method: […] Rat sLMA was measured from 0-30 min (0 minutes is 60 minutes after administration of the compound of Formula (I) and 20 minutes after administration of propranolol).
# [3] = test system: harmaline-induced decrease in travelling distance in male SD rats; assay: Open field test with harmaline in SD rats; type: in vivo, rat; details: harmaline 30 mg/kg, 10 mg/kg
# Method: (§1) Each of six groups of male SD rats were subjected to a tremor assessment, followed by three ADL-like measures including open field test, rotarod test, and wire grip test after receiving doses of either vehicle, Formula (I), or propranolol, followed by either saline or harmaline, as outlined below in Table 22 below.
# Fifteen minutes after the tremor assessment, the rats were subjected to an open field test. FIG. 8 is a bar graph showing the traveling distance in 0-5 minutes (mm) measured in rats that were administered 30 mg/kg harmaline and also administered 10 mg/kg propranolol or 1 mg/kg, 3 mg/kg or 10 mg/kg study drug.
# [4] = test system: harmaline-induced motor impairment in male SD rats; assay: Wire grip test with harmaline in SD rats; type: in vivo, rat; details: harmaline 30 mg/kg, 10 mg/kg, reference compound
# Text: as §1
# Fifteen minutes after the rotarod test, rats were subjected to a wire grip test using an 80 cm long and 7 mm in diameter wire placed at a height of 50 cm.
# [5] = test system: harmaline-induced motor impairment in male SD rats; assay: Rotarod test with harmaline in SD rats; type: in vivo, rat; details: harmaline 30 mg/kg, 10 mg/kg
# Method: as §1
# Fifteen minutes after the open field test, the rats were subjected to a rotarod test. The speed of the rotarod increased from 10 rpms to 60 rpms within the first five minutes of the test. FIG. 9 is a bar graph showing the mean of latency to fall in the rotarod test measured in rats that were administered 30 mg/kg harmaline and also administered 10 mg/kg propranolol or 1 mg/kg, 3 mg/kg or 10 mg/kg study drug.
# [6] = test system: harmaline-induced tremor in male SD rats; assay: Tremor assessment (tremor score 0-4) with harmaline in SD rats; type: in vivo, rat; details: harmaline 30 mg/kg, 10 mg/kg
# Text: as §1, with “below. Twenty minutes after administration of harmaline or saline, the rats were subjected to a tremor assessment using the score criteria outlined in the table below.” for “below.”
smiles,measurement,setting,value
"CC(C)NCC(O)COc1cccc2ccccc12 (stereo not drawn) [propranolol, reference compound]",plasma and brain concentrations,[1],consistent with those measured in previous studies
same,total sLMA (total distance travelled),[2],do not significantly reduce
same,harmaline-induced decrease in spontaneous locomotor activity in the open field,[3],no effect
same,latency to fall in wire grip test,[4],significant reduction in motor impairment; also recorded: significantly attenuated
same,latency to fall in rotarod test vs vehicle and harmaline only,[5],failed to display any significant improvement; also recorded: no effect
same,average tremor score vs vehicle and harmaline only,[6],significantly lower; also recorded: significantly inhibited
